The target of series [1] is T1, Aβ (Homo sapiens, UniProt P05067).
T1 construct: Aβ (Aβ) is the major component of senile plaques and is derived from the amyloid precursor protein by proteolytic cleavage
Nature of the series: Binding of growth factors to Aβ. To be noted: among NGF, bFGF, PDGF, VEGF and midkine.

Series [2] relates to endothelial cells. Nature of the series: Effect of Aβ peptides on binding of VEGF with the receptors on endothelial cells. Type of series: cell-based. As to conditions: 1 μM; data not shown.
Series [3] deals with endothelial cells. The series can be described thus: Effect of Aβ peptides on proliferation of endothelial cells induced by VEGF. It counts as cell-based. As to conditions: 1 μM; data not shown.
Series [4] concerns MDA-MB-231 tumor cells. The series can be described thus: Effect of Aβ peptides on binding of VEGF to tumor cells that express neuropilin-1. Type of series: cell-based. To be noted: data not shown.
The target in series [5] is T1, Aβ. Nature of the series: Determination of Aβ binding region in VEGF, immobilized GST-fusion proteins. As to conditions: GST-fusion proteins 200 nM immobilized; 200 nM Aβ. How it is done: The purified proteins were analyzed with 12% SDS-polyacrylmide gel electrophoresis. […] After blocking nonspecific binding sites with 3% BSA/PBS, 200 nM of Aβ was added to each well and allowed to bind to immobilized proteins. Unbound Aβ was removed and the bound Aβ was determined with rabbit anti-Aβ antibody followed by anti-rabbit antibody conjugated with horse radish peroxidase.

The subject of series [6] is PC12 cells. Nature of the series: MTT assay, cytotoxicity of Aβ. Type of series: cell-based. Also on record: dose or concentration left out as unconfirmed. To be noted: Aβ1-42 incubated with VEGF165 or GST-HBD at 37° C. for 24 hours; PC12 cells 24 hours. How it is done: The mixture was added to PC12 cells (2×10^4, cells/well, kindly provided by Dr. Pann-Ghill Suh), and then left for reaction at 37° C. for 24 hours. Then, 1/10 volume of 5 mg/ml MTT solution was added to the resulted mixture, and reacted for 2 hours. The obtained cells were lysed by 25% dimethylformamide/10% SDS. Thereafter, the absorbance of the lysate was measured at 570 nm, and then, compared with that of control of non-treated PC12 cells, to determine the reduction of MTT, and thereby determining the viability of the cells.
For orientation: Tetrazolium assays rely on reduction of a dye to a coloured formazan, in cell work by metabolically active cells.

For series [7], the system named is PC12 cells. Nature of the series: Ethidium fluorescence assay, cytotoxicity of Aβ. It counts as cell-based. To be noted: 5 μM Aβ1-42 incubated with VEGF or GST-HBD at 37° C. for 24 hours; PC12 cells 24 hours. How it is done:
The mixture was added to PC12 cells (2×10^4, cells/well, kindly provided by Dr. Pann-Ghill Suh), and then left for reaction at 37° C. for 24 hours. Then, equal volume of 4 μM ethidium homodimer-1 was added to the resulted mixture, and reacted for 30 minutes. Thereafter, the fluorescence of the mixture was measured at Ex=530 nm and Em=645 nm, and then, compared with that of control of non-treated PC12 cells, to determine the cytotoxicity of Aβ.

Series [8] has as its target T2, Aβ1-42 (Homo sapiens, UniProt P05067).
T2 construct: Aβ1-40, Aβ1-42, and Aβ40-1 (BACHEM, Bubendorf, Switzerland) were immobilized on a CM5 sensor chip; purchased BACHEM
The series can be described thus: Thioflavin T assay of Aβ aggregation. As to conditions: 24 hours. It counts as biochemical. How it is done:
10 μM of thioflavin T was added to the mixture and sufficiently mixed. Then, the fluorescence of the mixture was measured at Ex=444 nm and Em=485 nm, and then, compared with that of control of Aβ incubated alone, to determine the affection on aggregation of Aβ.
50 μM Aβ was incubated at 37° C. for 24 hours together with triamterene of 0 μM, 4 μM, 20 μM or 100 μM, respectively, to generate aggregation of Aβ. Then, the degree of aggregation was determined by the thioflavin T assay as illustrated in Example 11.

The test system of series [9] is PC12 cells. The series can be described thus: DCF fluorescence, generation of reactive oxygen species by Aβ. Type of series: cell-based. To be noted: PC12 cells 3 hours. How it is done: 5 μM VEGF165 or 5 μM GST-HBD and 5 μM Aβ1-42 were mixed and incubated at 37° C. for 24 hours. The mixture was added to PC12 cells (6×10^4, cells/well, kindly provided by Dr. Pann-Ghill Suh), and then left for reaction at 37° C. for 3 hours. Then, 100 μM of DCF solution was added to the resulted mixture, reacted for 30 minutes, and then washed with PBS (phosphate-buffered saline). The obtained cells were observed through a fluorescent microscope, and DCF fluorescence was measured, to calculate the level of generation of the reactive oxygen species.

For series [10], the target named is T3, VEGF/Aβ interaction (VEGF165, biotinylated Aβ) (Homo sapiens, UniProt P15692).
T3 sequence (P15692 27-191 isoform P15692-4 limits assumed): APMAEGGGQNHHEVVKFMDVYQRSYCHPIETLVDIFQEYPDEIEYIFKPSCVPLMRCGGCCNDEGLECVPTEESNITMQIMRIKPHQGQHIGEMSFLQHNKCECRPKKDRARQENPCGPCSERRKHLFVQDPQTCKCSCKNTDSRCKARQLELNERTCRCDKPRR
Nature of the series: Inhibition of biotinylated Aβ binding to coated VEGF165. As to conditions: VEGF165 50 ng/well; biotinylated Aβ 100 ng/ml; increasing concentration of test compound. How it is done: Biotinylated Aβ (100 ng/ml) was added to each well in the presence of increasing concentration of test compound. After 2 hours, each well was rinsed several times with 0.05% Tween in PBS. The bound biotinylated Aβ was determined with steptavidin conjugated with horse radish peroxidase.

The target of series [11] is T1, Aβ. The series can be described thus: Inhibition of the aggregation of Aβ by Aβ-VEGF binding inhibitors. Type of series: biochemical.
Series [12] concerns the target T4, Aβ-VEGF binding (Homo sapiens, UniProt P15692).
T4 construct: Aβ (Aβ) is the major component of senile plaques and is derived from the amyloid precursor protein by proteolytic cleavage
T4 sequence (P15692 27-191 isoform P15692-4 limits assumed): T3 sequence (P15692 27-191 isoform P15692-4 limits assumed)
Nature of the series: Search for an inhibitor of Aβ-VEGF binding.

For series [13], the target named is T5, immobilized VEGF165 (Homo sapiens, UniProt P15692).
T5 sequence (P15692 27-191 isoform P15692-4): T3 sequence (P15692 27-191 isoform P15692-4 limits assumed)
The series can be described thus: Determination of VEGF binding region in Aβ, competition by Aβ fragments. As to conditions: Aβ1-42 50 nM; 30 μM or 50 μM Aβ fragment. How it is done:
After removing unbound Aβ, the bound Aβ was determined by binding of rabbit anti-Aβ antibody followed by anti-rabbit antibody conjugated with horse radish peroxidase. […] The bound biotinylated Aβ was determined with streptavidin conjugated with horse radish peroxidase.

In series [14] the target is T6, VEGF/Aβ interaction (GST-heparin-binding domain, biotinylated Aβ1-42) (Homo sapiens, UniProt P15692).
T6 construct: made in house
T6 sequence (P15692 137-191 isoform P15692-4): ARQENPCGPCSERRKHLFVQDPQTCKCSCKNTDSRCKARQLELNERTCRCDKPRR
The series can be described thus: Heparin inhibition of biotinylated Aβ1-42 binding to immobilized GST-heparin-binding domain. As to conditions: GST-heparin-binding domain 100 nM immobilized; biotinylated Aβ1-42 50 nM. How it is done: After removing unbound biotinylated Aβ, the bound peptide was determined with steptavidin conjugated with horse radish peroxidase.

The target in series [15] is T7, Aβ-VEGF binding (VEGF, biotinylated Aβ1-42) (Homo sapiens, UniProt P15692).
T7 sequence (P15692 27-191 isoform P15692-4 limits assumed): T3 sequence (P15692 27-191 isoform P15692-4 limits assumed)
Nature of the series: Aβ-VEGF binding in presence of triamterene. As to conditions: 100 nM VEGF, 100 nM biotinylated Aβ1-42, 37° C., 24 hours. How it is done: The level of the formation of the Aβ-VEGF binding was measured and compared with that of control without triamterene.

Series [16] has as its target VEGF receptor, KDR-Fc (Homo sapiens, UniProt P35968). As to conditions: VEGF 12 nM immobilized; 0.3 nM KDR-Fc.
Method: After removing unbound KDR-Fc, the bound KDR-Fc was determined by binding of mouse anti-Fc antibody followed by anti-mouse antibody conjugated with horse radish peroxidase.

Where no end group is shown, it is not given here.

VEGF receptor, KDR-Fc, sequence (P35968 with tags, fused parts or gaps limits assumed): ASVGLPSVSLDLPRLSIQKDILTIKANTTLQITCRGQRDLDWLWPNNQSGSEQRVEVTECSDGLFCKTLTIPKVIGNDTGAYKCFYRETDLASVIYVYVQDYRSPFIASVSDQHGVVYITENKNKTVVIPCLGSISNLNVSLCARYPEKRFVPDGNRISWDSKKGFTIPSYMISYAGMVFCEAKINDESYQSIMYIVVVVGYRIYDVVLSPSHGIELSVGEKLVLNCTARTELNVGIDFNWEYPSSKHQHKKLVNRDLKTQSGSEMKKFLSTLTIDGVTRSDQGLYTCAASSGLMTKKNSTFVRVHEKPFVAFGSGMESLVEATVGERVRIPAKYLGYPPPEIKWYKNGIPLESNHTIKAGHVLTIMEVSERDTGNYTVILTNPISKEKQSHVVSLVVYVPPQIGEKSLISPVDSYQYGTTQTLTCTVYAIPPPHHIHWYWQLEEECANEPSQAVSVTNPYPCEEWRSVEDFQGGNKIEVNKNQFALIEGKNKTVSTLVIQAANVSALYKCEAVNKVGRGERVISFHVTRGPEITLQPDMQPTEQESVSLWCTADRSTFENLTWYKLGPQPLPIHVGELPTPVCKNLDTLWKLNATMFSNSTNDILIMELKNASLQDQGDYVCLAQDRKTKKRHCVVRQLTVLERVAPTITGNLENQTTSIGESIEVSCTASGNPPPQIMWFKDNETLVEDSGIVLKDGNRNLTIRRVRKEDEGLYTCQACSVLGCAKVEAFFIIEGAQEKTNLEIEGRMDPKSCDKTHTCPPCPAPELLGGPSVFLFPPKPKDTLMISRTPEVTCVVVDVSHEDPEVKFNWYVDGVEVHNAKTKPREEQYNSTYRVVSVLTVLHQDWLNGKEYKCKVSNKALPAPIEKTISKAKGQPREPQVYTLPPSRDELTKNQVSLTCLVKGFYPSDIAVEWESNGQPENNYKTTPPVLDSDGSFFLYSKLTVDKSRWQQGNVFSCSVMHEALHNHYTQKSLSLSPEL

As to bFGF: basic fibroblast growth factor, the “binding of growth factor to Aβ” value in [1] was “only VEGF and midkine bound to A”.

“Aβ1-42: β-amyloid peptide 1-42, SEQ ID NO:4”: the “effect on the binding of VEGF with the receptors on endothelial cells” value in series [2] is recorded as “Neither Aβ1-40 nor Aβ1-42, even at a high concentration (1 μM), affected”. Moreover, the “effect on the proliferation of endothelial cells induced by VEGF” value in series [3] is listed as “Neither Aβ1-40 nor Aβ1-42, even at a high concentration (1 μM), affected”. Also, in series [4], the “effect on the binding of VEGF to MDA-MB-231 tumor cells” value is “Neither did Aβ1-40 nor Aβ1-42 affect”.

With “GST-CHBD: C-terminal half (amino acid 29-55) of heparin-binding domain fused to GST (CKNTDSRCKARQLELNERTCRCDKPRR; cysteine pairing not given here; also: fused to GST)”, in series [5], the “binding of Aβ to immobilized GST-fusion protein” value is given as “Aβ binds to C-terminal sub-domain of heparin-binding domain”.

Turning to “HBD: full heparin-binding domain of VEGF165 (SEQ ID NO:2) fused to GST (ARQENPCGPCSERRKHLFVQDPQTCKCSCKNTDSRCKARQLELNERTCRCDKPRR; cysteine pairing not given here; also: fused to GST)”, the “inhibition of the cytotoxicity of Aβ (MTT reduction)” value in series [6] was “exhibits the activity to inhibit the cytotoxicity of Aβ”. In addition, the “inhibition of the cytotoxicity of Aβ (ethidium homodimer-1 fluorescence)” value in series [7] is listed as “inhibit the cytotoxicity of Aβ depending on the concentration”. Moreover, the “inhibition of aggregation of Aβ (thioflavin T)” value in series [8] (50 μM Aβ1-42, 37° C., VEGF or GST-HBD at various concentrations) is “inhibit aggregation of Aβ depending on the concentration”. Further, the “generation of the reactive oxygen species, treatment alone” value in series [9] (5 μM VEGF165 or 5 μM GST-HBD alone) was “no effect on the generation of the reactive oxygen species”. For the same molecule, the “generation of the reactive oxygen species by Aβ, treatment together with Aβ” value in series [9] (5 μM VEGF165 or 5 μM GST-HBD with 5 μM Aβ1-42) is “inhibitory effect on the generation of the reactive oxygen species by Aβ”.

For the molecule `O=C(O[C@@H]1Cc2c(O)cc(O)cc2O[C@@H]1c1cc(O)c(O)c(O)c1)c1cc(O)c(O)c(O)c1` [EGCG, epigallocatechin gallate, reference compound], the “inhibition of binding of Aβ to VEGF” value in series [10] is on record as “inhibition”. Further, the “activity to inhibit the aggregation of Aβ by itself” value in [11] is recorded as “additional activity to inhibit the aggregation of Aβ by itself”.

For the molecule tannic acid, the “inhibition of binding of Aβ to VEGF” value in [10] was “inhibition”.

With “Aβ1-40: β-amyloid peptide residues 1-40 (BACHEM)”, in series [2], the “effect on the binding of VEGF with the receptors on endothelial cells” value is “Neither Aβ1-40 nor Aβ1-42, even at a high concentration (1 μM), affected”. Also, the “effect on the proliferation of endothelial cells induced by VEGF” value in [3] was “Neither Aβ1-40 nor Aβ1-42, even at a high concentration (1 μM), affected”. Moreover, in [4], the “effect on the binding of VEGF to MDA-MB-231 tumor cells” value was “Neither did Aβ1-40 nor Aβ1-42 affect”.

As for fucoidan, the “activity to inhibit the aggregation of Aβ by itself” value in [11] was “additional activity to inhibit the aggregation of Aβ by itself”. Also, the “inhibitor of Aβ-VEGF binding (search)” value in series [12] is given as “searched as an inhibitor of Aβ-VEGF binding”.

PDGF: the “binding of growth factor to Aβ” value in series [1] was “only VEGF and midkine bound to A”.

In the case of “Aβ25-35: partial fragment of Aβ, residues 25-35 of SEQ ID NO:4 (GSNRGAIIGLM; listed as Homo sapiens)”, the “competition with Aβ for binding to immobilized VEGF165” value in series [13] was “competes with Aβ for its binding to immobilized VEGF165”.

On to heparin, for which, in [14], the “IC50, inhibition of binding of biotinylated Aβ1-42 to heparin-binding domain” value was approximately 0.025 µg/mL.

In the case of NGF: nerve growth factor, the “binding of growth factor to Aβ” value in [1] is “only VEGF and midkine bound to A”.

For the molecule `Nc1nc(N)c2nc(-c3ccccc3)c(N)nc2n1` [triamterene], the “affection on aggregation of Aβ (thioflavin T)” value in [8] (50 μM Aβ, 37° C., triamterene 0, 4, 20 or 100 μM) is “no affection on aggregation of Aβ regardless of the concentration”. Also, the “inhibition of the Aβ-VEGF binding” value in series [15] was “concentration-dependently inhibits the binding between Aβ and VEGF”. The “affection on the VEGF-VEGF receptor binding” value in [16] is listed as “no affection on the VEGF-VEGF receptor binding regardless of the concentration”.

B1: midkine: heparin-binding, neurotrophic growth factor whose expression occurs mainly in fetus (protein)
chain: VAKKKDKVKKGGPGSECAEWAWGPCTPSSKDCGVGFREGTCGAQTQRIRCRVPCNWKKEFGADCKYKFENWGACDGGTGTKVRQGTLKKARYNAQCQETIRVTKPCTPKTKAKAKAKKGKGKD
Turning to B1, the “binding of growth factor to Aβ” value in series [1] is given as “bound to A”.
